Data: patent publication US20030166202A1, “P450 Monooxygenases of the cyp79 family” (priority 2000, published 2003)

Tests used:
[1] = biological target: CYP79F1 (Arabidopsis thaliana, UniProt Q949U1, M2A); details: E. coli C43(DE3) spheroplasts, GC-MS or TLC
Experimental: In a typical enzyme assay, 5 μl spheroplasts and 4 μl NADPH:cytochrome P450 reductase (equivalent to 0.04 units defined as 1 μmol cytochrome c/min) are incubated with substrate in buffer containing 30 mM KPi, pH 7.5, 3 mM NADPH, 3 mM reduced glutathione, 0.042% Tween 80, 1 mg ml^−1 L-α-dilauroylphosphatidylcholine in a total volume of 30 μl. Reaction mixtures containing spheroplasts of E. coli C43(DE3) transformed with empty vector are used as controls in all assays. 3.3 μM L-[U-^14C]phenylalanine (453 mCi/mmol; Pharmacia), 3.7 μM L-[U-^14C]tyrosine (449 mCi/mmol; Pharmacia), 0.1 mM L-[methyl-^14C]methionine (56 mCi/mmol; Pharmacia), and 24 μM L-[side chain-3-^14C]tryptophan (56.5 mCi/mmol; NEN) are tested as potential substrates. After incubation at 28° C. for 1 hour, half of the reaction mixture is analyzed by TLC on Silica Gel 60 F254 sheets (Merck) using toluene/ethyl acetate 5:1 (v/v) as eluent. Radiolabelled bands are visualized and quantified using a STORM 840 phosphoimager (Pharmacia). For GC-MS analysis, 450 μl reaction mixture containing 3.3 mM L-methionine (Sigma), 3.3 mM DL-dihomomethionine or 3.3 mM DL-trihomomethionine, respectively, are incubated for 4 hours at 25° C. and extracted with a total volume of 600 μl CHCl3. The organic phase is collected, evaporated, and the residue is dissolved in 15 μl CHCl3 and analyzed by GC-MS. […] An SGE column (BPX5, 25 m×0.25 mm, 0.25 μm film thickness) is used (heat pressure 100 kPa, splitless injection). The oven temperature program is as follows: 80° C. for 3 minutes, 80° C. to 180° C. at 5° C. min^−1, 180° C. to 300° C. at 20° C. min^−1, and 300° C. for 10 min. The ion source is run in EI mode (70 eV) at 200° C. […] DL-dihomomethionine, DL-trihomomethionine, 5-methylthiopentanaldoxime and 6-methylthiohexanaldoxime are synthesized as described (Dawson et al, J. Biol. Chem. 268: 27154-27159, 1993) and authenticated by NMR spectroscopy.

[2] = biological target: T1, CYP79B2 (Arabidopsis thaliana, UniProt O81346); test: CYP79B2 activity in E. coli spheroplasts reconstituted with NADPH:cytochrome P450 reductase; details: radiolabelled amino acid, TLC
T1 sequence (O81346 1-541): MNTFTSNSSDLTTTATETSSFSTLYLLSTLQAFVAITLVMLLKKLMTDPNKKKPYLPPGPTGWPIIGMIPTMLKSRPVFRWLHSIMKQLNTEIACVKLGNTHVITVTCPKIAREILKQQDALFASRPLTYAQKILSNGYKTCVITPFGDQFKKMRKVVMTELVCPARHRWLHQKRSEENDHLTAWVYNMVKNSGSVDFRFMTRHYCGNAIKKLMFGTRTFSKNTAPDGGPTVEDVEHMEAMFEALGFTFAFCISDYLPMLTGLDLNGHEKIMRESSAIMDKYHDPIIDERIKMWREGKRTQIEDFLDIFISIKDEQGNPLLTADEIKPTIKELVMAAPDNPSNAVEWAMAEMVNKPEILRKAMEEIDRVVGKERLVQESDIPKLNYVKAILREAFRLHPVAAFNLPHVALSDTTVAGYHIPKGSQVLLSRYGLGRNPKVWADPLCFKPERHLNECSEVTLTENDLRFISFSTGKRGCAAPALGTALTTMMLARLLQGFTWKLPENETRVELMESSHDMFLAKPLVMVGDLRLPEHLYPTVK
Experimental: The activity of CYP79B2 is measured by reconstituting spheroplasts from E. coli expressing CYP79B2 with purified NADPH:cytochrome P450 reductase from Sorghum bicolor (L.) Moench. […] The reaction is incubated at 34° C. for 30 minutes, extracted two times with ethyl acetate and the ethyl acetate phase is analyzed by TLC using toluen:ethyl acetate 5:1 as eluent. Radiolabelled bands are visualized on a Storm 840 phosphorimager (Molecular Dynamics) and quantified with ImageQuant analysis software (Molecular Dynamics). Substrate specificity is investigated by substituting the ^14C-labelled tryptophan with ^14C-labelled tyrosine or phenylalanine. GC-MS is employed to verify the structure of the compound produced from tryptophan by recombinant CYP79B2. A 450 μl reaction mixture as described above containing 2 mM unlabelled tryptophan is incubated at 34° C. for 2 hours. The reaction mixture is extracted twice with 300 μl CHCl3 and lyophilized until dryness. GC-MS is performed with an HP5890 Series II gas chromatograph coupled to a Jeol JMS-AX505W mass spectrometer. Splitless injection on an SGE column (BPX5, 25 mm×0.25 mm, 0.25 μm film thickness) and a head pressure of 100 kPa are used.
Single colonies are grown overnight at 37° C. in LB medium containing 100 μg/ml ampicillin. 1 ml of the overnight culture is used to inoculate 75 ml TB medium containing 100 μg/ml ampicillin, 75 μg/ml δ-aminolevulinic acid, 1 mM thiamine and 1 mM IPTG. The TB cultures are grown for 44 hours at 125 rpm and 28° C.

Chain of CYP79F1 (Q949U1 whole entry M2A): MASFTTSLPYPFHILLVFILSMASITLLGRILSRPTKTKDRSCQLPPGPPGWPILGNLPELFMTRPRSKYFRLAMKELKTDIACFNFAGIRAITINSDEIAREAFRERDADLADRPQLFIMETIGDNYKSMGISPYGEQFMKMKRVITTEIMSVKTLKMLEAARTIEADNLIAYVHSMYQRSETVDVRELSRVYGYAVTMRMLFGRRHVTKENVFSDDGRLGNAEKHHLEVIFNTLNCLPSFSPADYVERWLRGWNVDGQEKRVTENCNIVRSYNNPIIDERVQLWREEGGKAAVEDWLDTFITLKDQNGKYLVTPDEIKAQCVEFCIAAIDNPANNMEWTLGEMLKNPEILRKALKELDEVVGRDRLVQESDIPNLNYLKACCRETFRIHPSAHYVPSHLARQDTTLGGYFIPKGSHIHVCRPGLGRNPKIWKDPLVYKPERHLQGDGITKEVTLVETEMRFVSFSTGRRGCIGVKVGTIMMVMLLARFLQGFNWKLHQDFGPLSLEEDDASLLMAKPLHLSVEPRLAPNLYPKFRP

N[C@@H](Cc1ccc(O)cc1)C(=O)O [L-tyrosine]
formation of the corresponding aldoxime by CYP79F1 [1]: did not result in the formation of detectable amounts of the corresponding aldoximes
oxime production by CYP79B2 [2]: No oxime producing activity is detected
